For 15 molecules, MIC results are on record in DBAASP.

What is called MIC is the lowest concentration that inhibits growth of the organism. A high value points to a less susceptible organism.

Converted amounts (≈) assume the structure as drawn. Some results are limits rather than exact numbers.

What all share (assay): ≥ marks a high value that may be exact or a test limit, other limits are often not marked, values filed in µg/mL are converted to µM
Assay [1] deals with Escherichia coli ATCC 25922.
Assay [2] deals with Staphylococcus aureus NCTC 8325.
Assay [3] has as its system Pseudomonas aeruginosa Ps4.
Assay [4] deals with Candida albicans ATCC 90028.
The subject of assay [5] is Streptococcus mutans.

Consider `CC[C@H](C)[C@H](NC(=O)[C@H](CCCCN)NC(=O)[C@H](C)NC(=O)[C@H](CC(C)C)NC(=O)[C@H](CC(=O)O)NC(=O)[C@@H](NC(=O)[C@H](C)N)C(C)C)C(=O)N[C@@H](C)C(=O)N[C@@H](CC(N)=O)C(=O)N[C@@H](CCCCN)C(=O)N[C@H](C(=O)N[C@@H](CC(C)C)C(=O)N[C@@H](CO)C(=O)N[C@@H](CO)C(=O)N[C@@H](CC(C)C)C(=O)N[C@@H](Cc1ccccc1)C(N)=O)C(C)C` [AVDLAKIANKVLSSLF], for which the MIC in assay [1] is 37.5 µM (≈ 63.3 µg/mL); in assay [2], not below 150 µM.
Regarding `CC[C@H](C)[C@H](NC(=O)[C@H](CCCN=C(N)N)NC(=O)[C@@H](NC(=O)[C@H](CC(N)=O)NC(=O)[C@H](CCCN=C(N)N)NC(=O)[C@H](CCC(N)=O)NC(=O)[C@H](Cc1c[nH]c2ccccc12)NC(=O)[C@H](Cc1ccccc1)NC(=O)[C@@H](N)Cc1ccccc1)[C@@H](C)CC)C(=O)N[C@@H](CCCN=C(N)N)C(=O)N[C@@H](CCCN=C(N)N)C(N)=O` [FFWQRNIRIRR], the MIC in assay [3] was not below 157 µM.
For `CC[C@H](C)[C@H](NC(=O)[C@H](CCCCN)NC(=O)[C@H](CCSC)NC(=O)[C@H](CC(C)C)NC(=O)CNC(=O)CNC(=O)[C@H](CC(C)C)NC(=O)[C@@H](N)Cc1ccccc1)C(=O)N[C@H](C(=O)N1CCC[C@H]1C(=O)N[C@@H](C)C(=O)N[C@@H](C)C(=O)N[C@@H](Cc1ccccc1)C(=O)N[C@H]1CSSC[C@@H](C(=O)O)NC(=O)[C@H](CCCCN)NC(=O)[C@H](CCCCN)NC(=O)[C@H]([C@@H](C)O)NC(=O)[C@H](C(C)C)NC(=O)[C@H](C)NC1=O)[C@@H](C)CC` [FLGGLMKIIPAAFCAVTKKC], the results for the MIC in assay [4], in assay [1] and in assay [2] were not below 70 µM, 9 µM (≈ 19 µg/mL) and 18 µM (≈ 38 µg/mL), respectively.
Molecule `CC[C@H](C)[C@H](NC(=O)[C@H](CCCN=C(N)N)NC(=O)[C@H](CCC(N)=O)NC(=O)[C@H](Cc1c[nH]c2ccccc12)NC(=O)[C@@H](N)Cc1ccccc1)C(=O)N[C@@H](CCCN=C(N)N)C(=O)N[C@@H](CCCCN)C(=O)N[C@H](C(=O)N[C@@H](CCCN=C(N)N)C(N)=O)C(C)C` [FWQRIRKVR] yielded an MIC in assay [3] not below 194 µM.
`CC[C@H](C)[C@H](NC(=O)[C@H](CC(N)=O)NC(=O)[C@H](CCCN=C(N)N)NC(=O)[C@H](CCC(N)=O)NC(=O)[C@H](Cc1c[nH]c2ccccc12)NC(=O)[C@@H](N)Cc1ccccc1)C(=O)N[C@@H](CCCN=C(N)N)C(=O)N[C@@H](CCCCN)C(=O)N[C@@H](Cc1ccc(O)cc1)C(=O)N[C@@H](CCCN=C(N)N)C(N)=O` [FWQRNIRKYR] had an MIC in assay [3] not below 170 µM.
As to `CC[C@H](C)[C@H](NC(=O)[C@H](CC(N)=O)NC(=O)[C@H](CCCN=C(N)N)NC(=O)[C@H](CCC(N)=O)NC(=O)[C@H](Cc1c[nH]c2ccccc12)NC(=O)[C@@H](N)Cc1ccccc1)C(=O)N[C@@H](CCCN=C(N)N)C(=O)N[C@@H](CO)C(=O)N[C@H](C(=O)N[C@@H](CCCN=C(N)N)C(N)=O)C(C)C` [FWQRNIRSVR], in assay [3], the MIC is not below 184 µM.
In assay [3], `CC[C@H](C)[C@H](NC(=O)[C@H](Cc1c[nH]c2ccccc12)NC(=O)[C@H](CC(N)=O)NC(=O)[C@H](CCCN=C(N)N)NC(=O)[C@H](CCC(N)=O)NC(=O)[C@H](Cc1c[nH]c2ccccc12)NC(=O)[C@@H](N)Cc1ccccc1)C(=O)N[C@@H](CCCN=C(N)N)C(=O)N[C@@H](CCCN=C(N)N)C(N)=O` [FWQRNWIRR] registered an MIC not below 184 µM.
In turn, `CC[C@H](C)[C@H](NC(=O)[C@H](CC(N)=O)NC(=O)[C@H](CO)NC(=O)[C@H](CCC(N)=O)NC(=O)[C@H](Cc1c[nH]c2ccccc12)NC(=O)[C@@H](N)Cc1ccccc1)C(=O)N[C@@H](CCCN=C(N)N)C(=O)N[C@@H](CCCCN)C(=O)N[C@H](C(=O)N[C@@H](CCCN=C(N)N)C(N)=O)C(C)C` [FWQSNIRKVR] displayed an MIC in assay [3] not below 187 µM.
In turn, `CC[C@H](C)[C@H](NC(=O)[C@H](CCCN=C(N)N)NC(=O)[C@H](Cc1c[nH]c2ccccc12)NC(=O)[C@H](CCCN=C(N)N)NC(=O)[C@H](Cc1c[nH]c2ccccc12)NC(=O)[C@@H](N)Cc1ccccc1)C(=O)N[C@@H](Cc1c[nH]c2ccccc12)C(=O)N[C@@H](CCCN=C(N)N)C(N)=O` [FWRWRIWR] showed an MIC in assay [3] of 23.9 µM (≈ 31.2 µg/mL). This counts as double-digit micromolar.
`CC[C@H](C)[C@H](NC(=O)[C@H](CC(N)=O)NC(=O)[C@H](CCCN=C(N)N)NC(=O)[C@H](CCC(N)=O)NC(=O)[C@H](Cc1ccc(O)cc1)NC(=O)[C@@H](N)Cc1ccccc1)C(=O)N[C@@H](CCCN=C(N)N)C(=O)N[C@@H](CCCCN)C(=O)N[C@H](C(=O)N[C@@H](CCCN=C(N)N)C(N)=O)C(C)C` [FYQRNIRKVR] gave an MIC in assay [3] not below 181 µM.
In the case of `CC[C@H](C)[C@H](NC(=O)[C@H](CCCCN)NC(=O)[C@H](CC(C)C)NC(=O)[C@H](CC(C)C)NC(=O)[C@@H]1CCCN1C(=O)CNC(=O)[C@H](CC(C)C)NC(=O)[C@H](CC(C)C)NC(=O)CN)C(=O)N[C@@H](C)C(=O)N[C@@H](C)C(=O)N[C@@H](CCCCN)C(=O)N[C@H](C(=O)NCC(=O)N[C@@H](CO)C(=O)N[C@@H](CC(N)=O)C(=O)N[C@@H](CC(C)C)C(=O)N[C@@H](CC(C)C)C(=O)O)C(C)C` [GLLGPLLKIAAKVGSNLL], the MIC in assay [4] is not below 200 µM; in assay [1], 60 µM (≈ 107 µg/mL); in assay [2] it was not below 130 µM.
In assay [5], `CC[C@H](C)[C@H](NC(=O)[C@H](CCC(N)=O)NC(=O)[C@H](CC(N)=O)NC(=O)[C@H](Cc1ccccc1)NC(=O)[C@@H](NC(=O)[C@H](CCC(N)=O)NC(=O)[C@H](CC(C)C)NC(=O)[C@H](CC(C)C)NC(=O)[C@@H](N)CCCCN)[C@@H](C)O)C(=O)N[C@@H](Cc1ccccc1)C(=O)N[C@@H](CCCN=C(N)N)C(=O)O` [KLLQTFNQIFR] returned an MIC not below 88.8 µM.
As for `CC[C@H](C)[C@H](NC(=O)[C@@H](N)CCCN=C(N)N)C(=O)N[C@@H](CC(C)C)C(=O)N[C@@H](CCCCN)C(=O)N[C@@H](CCC(=O)O)C(=O)N[C@@H](CC(C)C)C(=O)N[C@@H](CCCCN)C(=O)N[C@@H](CC(N)=O)C(=O)N[C@@H](CC(C)C)C(=O)N[C@@H](Cc1ccccc1)C(=O)N[C@@H](CCCCN)C(=O)O` [RILKELKNLFK], the MIC in assay [5] was not below 178 µM.
`NC(=O)[C@H](Cc1ccccc1)NC(=O)[C@H](CCCN=C(N)N)NC(=O)[C@H](CCCN=C(N)N)NC(=O)[C@H](Cc1c[nH]c2ccccc12)NC(=O)[C@H](Cc1c[nH]c2ccccc12)NC(=O)[C@H](CCCN=C(N)N)NC(=O)[C@@H](N)CCCN=C(N)N` [RRWWRRF] showed an MIC in assay [5] of 14.6 µM (≈ 17 µg/mL).
Same read-out and setting: for `CC[C@H](C)[C@H](NC(=O)CNC(=O)CNC(=O)CNC(=O)[C@H](Cc1ccccc1)NC(=O)[C@H](Cc1c[nH]c2ccccc12)NC(=O)[C@H](CCCN=C(N)N)NC(=O)[C@H](Cc1c[nH]c2ccccc12)NC(=O)[C@H](CCCN=C(N)N)NC(=O)[C@H](Cc1c[nH]c2ccccc12)NC(=O)[C@@H](N)CCCN=C(N)N)C(=O)N[C@@H](CCCCN)C(=O)N[C@@H](CCC(N)=O)C(=O)N[C@@H](CC(C)C)C(=O)N[C@@H](CC(C)C)C(=O)N[C@@H](Cc1cnc[nH]1)C(=O)N[C@@H](Cc1ccccc1)C(=O)N[C@@H](Cc1ccccc1)C(=O)N[C@@H](CCC(N)=O)C(=O)N[C@@H](Cc1c[nH]c2ccccc12)C(=O)N[C@@H](CCCN=C(N)N)C(=O)N[C@@H](Cc1ccccc1)C(N)=O` [RWRWRWFGGGIKQLLHFFQWRF] the value was 3.76 µM (≈ 11.3 µg/mL).
